Data taken from US20220289679A1, “HETEROCYCLIC COMPOUND” (Takeda Pharmaceutical Company Limited, priority 2019, published 2022).

The compounds below were run against T1, human GCS (glucosylceramide synthase) (Homo sapiens, UniProt Q16739) (assay: Glucosylceramide Synthase (GCS) Assay). Conditions: test compound 10 μM; microsome fraction of Expi293F cells expressing human GCS; 1.7 μM UDP-glucose, 3 μM C8 ceramide; room temperature 60 min; C8 glucosylceramide by Rapidfire MS/MS; read-out: GCS enzyme inhibitory rate at 10 μM (%).
T1 construct: made in house; host or cells: Expi293F cells (transient expression; microsome fraction)
T1 sequence (Q16739 1-394): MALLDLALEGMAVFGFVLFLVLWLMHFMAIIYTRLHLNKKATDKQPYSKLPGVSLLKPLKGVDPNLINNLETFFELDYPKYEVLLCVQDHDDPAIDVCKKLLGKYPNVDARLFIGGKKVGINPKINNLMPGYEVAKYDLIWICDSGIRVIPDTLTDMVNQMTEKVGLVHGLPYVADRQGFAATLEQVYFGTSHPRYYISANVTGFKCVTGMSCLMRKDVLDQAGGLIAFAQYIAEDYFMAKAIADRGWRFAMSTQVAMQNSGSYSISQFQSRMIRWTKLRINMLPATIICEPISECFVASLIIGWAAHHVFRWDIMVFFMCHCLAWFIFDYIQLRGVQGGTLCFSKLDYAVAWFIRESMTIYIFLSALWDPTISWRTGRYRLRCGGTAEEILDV
Assay type: biochemical
In short: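 Enzyme source was a microsome fraction from Expi293F cells transiently expressing human GCS. Reaction ran 60 min at room temperature in 20 mM Tris pH 7.5 with 1.7 μM UDP-glucose (Km) and 3 μM liposomal C8 ceramide, compound at 10 μM final. C8 glucosylceramide quantified by RapidFire MS/MS; inhibition scaled between enzyme-free and DMSO controls.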

| inhibition at 10 µM [%] | SMILES |
| --- | --- |
| 98 | Cc1cc(C(=O)Nc2ccc(C(C)(C)O)nc2)c(=O)n(-c2ccccc2OCC(F)F)n1 [Example 135, 2-[2-(2,2-difluoroethoxy)phenyl]-N-[6-(2-hydroxypropan-2-yl)pyridin-3-yl]-6-methyl-3-oxo-2,3-dihydropyridazine-4-carboxamide] |
| 100 | Cc1cc(C(=O)Nc2ccc(C(C)(C)O)cc2)c(=O)n(-c2ccccc2OCC(F)F)n1 [Example 136, 2-[2-(2,2-difluoroethoxy)phenyl]-N-[4-(2-hydroxypropan-2-yl)phenyl]-6-methyl-3-oxo-2,3-dihydropyridazine-4-carboxamide] |
| 99 | Cc1cc(C(=O)Nc2ccc(C(C)(C)O)cn2)c(=O)n(-c2ccccc2OCC(F)F)n1 [Example 137, 2-[2-(2,2-difluoroethoxy)phenyl]-N-[5-(2-hydroxypropan-2-yl)pyridin-2-yl]-6-methyl-3-oxo-2,3-dihydropyridazine-4-carboxamide] |
| 97 | Cc1cc(C(C)(C)O)ccc1NC(=O)c1ccnn(-c2ccccc2OCC(F)F)c1=O [Example 143, 2-[2-(2,2-difluoroethoxy)phenyl]-N-[4-(2-hydroxypropan-2-yl)-2-methylphenyl]-3-oxo-2,3-dihydropyridazine-4-carboxamide] |
| 100 | Cc1cc(C(=O)Nc2ccc(C(C)(C)O)cc2F)c(=O)n(-c2ccccc2OCC(F)F)n1 [Example 146, 2-[2-(2,2-difluoroethoxy)phenyl]-N-[2-fluoro-4-(2-hydroxypropan-2-yl)phenyl]-6-methyl-3-oxo-2,3-dihydropyridazine-4-carboxamide] |
| 100 | CC(C)(O)c1ccc(NC(=O)c2ccnn(-c3ccccc3OCC(F)F)c2=O)c(F)c1 [Example 147, 2-[2-(2,2-difluoroethoxy)phenyl]-N-[2-fluoro-4-(2-hydroxypropan-2-yl)phenyl]-3-oxo-2,3-dihydropyridazine-4-carboxamide] |
| 100 | Cc1cc(C(=O)Nc2ccc(C(C)(C)O)cc2Cl)c(=O)n(-c2ccccc2OCC(F)F)n1 [Example 149, N-[2-chloro-4-(2-hydroxypropan-2-yl)phenyl]-2-[2-(2,2-difluoroethoxy)phenyl]-6-methyl-3-oxo-2,3-dihydropyridazine-4-carboxamide] |
| 94 | Cc1cc(C(=O)Nc2c(F)cc(C(C)(C)O)cc2F)c(=O)n(-c2ccccc2OCC(F)F)n1 [Example 150, 2-[2-(2,2-difluoroethoxy)phenyl]-N-[2,6-difluoro-4-(2-hydroxypropan-2-yl)phenyl]-6-methyl-3-oxo-2,3-dihydropyridazine-4-carboxamide] |
| 53 | COc1cc(C(C)(C)O)ccc1NC(=O)c1cc(C)nn(-c2ccccc2OCC(F)F)c1=O [Example 151, 2-[2-(2,2-difluoroethoxy)phenyl]-N-[4-(2-hydroxypropan-2-yl)-2-methoxyphenyl]-6-methyl-3-oxo-2,3-dihydropyridazine-4-carboxamide] |
| 83 | Cc1cc(C(=O)Nc2ccc(C(C)(C)O)cc2C#N)c(=O)n(-c2ccccc2OCC(F)F)n1 [Example 154, N-[2-cyano-4-(2-hydroxypropan-2-yl)phenyl]-2-[2-(2,2-difluoroethoxy)phenyl]-6-methyl-3-oxo-2,3-dihydropyridazine-4-carboxamide] |

The next lines start with the compound.

| SMILES | inhibition at 10 µM [%] |
| --- | --- |
| O=C(Nc1ccc(C(O)(C(F)F)C(F)F)nc1)c1cccn(-c2cccnc2OCC(F)(F)F)c1=O [Example 123, 2-oxo-N-[6-(1,1,3,3-tetrafluoro-2-hydroxypropan-2-yl)pyridin-3-yl]-2′-(2,2,2-trifluoroethoxy)-2H-[1,3′-bipyridine]-3-carboxamide] | 99 |
| O=C(Nc1ccc(C(O)(C(F)F)C(F)F)nc1)c1cccn(-c2cc(F)ccc2OCC(F)(F)F)c1=O [Example 124, 1-[5-fluoro-2-(2,2,2-trifluoroethoxy)phenyl]-2-oxo-N-[6-(1,1,3,3-tetrafluoro-2-hydroxypropan-2-yl)pyridin-3-yl]-1,2-dihydropyridine-3-carboxamide] | 99 |
| CC(C)(O)c1ccc(NC(=O)c2cccn(-c3cc(F)ccc3OCC(F)(F)F)c2=O)cn1 [Example 125, 1-[5-fluoro-2-(2,2,2-trifluoroethoxy)phenyl]-N-[6-(2-hydroxypropan-2-yl)pyridin-3-yl]-2-oxo-1,2-dihydropyridine-3-carboxamide] | 82 |
| CC(C)(O)c1ccc(NC(=O)c2ccnn(-c3ccccc3OCC(F)(F)F)c2=O)cn1 [Example 126, N-[6-(2-hydroxypropan-2-yl)pyridin-3-yl]-3-oxo-2-[2-(2,2,2-trifluoroethoxy)phenyl]-2,3-dihydropyridazine-4-carboxamide] | 97 |
| CC(C)(O)c1ccc(NC(=O)c2ccnn(-c3ccccc3OCC(F)(F)F)c2=O)cc1 [Example 127, N-[4-(2-hydroxypropan-2-yl)phenyl]-3-oxo-2-[2-(2,2,2-trifluoroethoxy)phenyl]-2,3-dihydropyridazine-4-carboxamide] | 100 |
| CC(C)(O)c1ccc(NC(=O)c2ccnn(-c3ccccc3OCC(F)(F)F)c2=O)nc1 [Example 128, N-[5-(2-hydroxypropan-2-yl)pyridin-2-yl]-3-oxo-2-[2-(2,2,2-trifluoroethoxy)phenyl]-2,3-dihydropyridazine-4-carboxamide] | 98 |
| Cc1cc(C(=O)Nc2ccc(C(C)(C)O)nc2)c(=O)n(-c2ccccc2OCC(F)(F)F)n1 [Example 129, N-[6-(2-hydroxypropan-2-yl)pyridin-3-yl]-6-methyl-3-oxo-2-[2-(2,2,2-trifluoroethoxy)phenyl]-2,3-dihydropyridazine-4-carboxamide] | 99 |
| Cc1cc(C(=O)Nc2ccc(C(C)(C)O)cn2)c(=O)n(-c2ccccc2OCC(F)(F)F)n1 [Example 130, N-[5-(2-hydroxypropan-2-yl)pyridin-2-yl]-6-methyl-3-oxo-2-[2-(2,2,2-trifluoroethoxy)phenyl]-2,3-dihydropyridazine-4-carboxamide] | 99 |
| Cc1cc(C(=O)Nc2ccc(C(C)(C)O)cc2)c(=O)n(-c2ccccc2OCC(F)(F)F)n1 [Example 131, N-[4-(2-hydroxypropan-2-yl)phenyl]-6-methyl-3-oxo-2-[2-(2,2,2-trifluoroethoxy)phenyl]-2,3-dihydropyridazine-4-carboxamide] | 100 |
| CC(C)(O)c1ccc(NC(=O)c2ccnn(-c3ccccc3OCC(F)F)c2=O)nc1 [Example 132, 2-[2-(2,2-difluoroethoxy)phenyl]-N-[5-(2-hydroxypropan-2-yl)pyridin-2-yl]-3-oxo-2,3-dihydropyridazine-4-carboxamide] | 96 |
| CC(C)(O)c1ccc(NC(=O)c2ccnn(-c3ccccc3OCC(F)F)c2=O)cc1 [Example 133, 2-[2-(2,2-difluoroethoxy)phenyl]-N-[4-(2-hydroxypropan-2-yl)phenyl]-3-oxo-2,3-dihydropyridazine-4-carboxamide] | 100 |
| CC(C)(O)c1ccc(NC(=O)c2ccnn(-c3ccccc3OCC(F)F)c2=O)cn1 [Example 134, 2-[2-(2,2-difluoroethoxy)phenyl]-N-[6-(2-hydroxypropan-2-yl)pyridin-3-yl]-3-oxo-2,3-dihydropyridazine-4-carboxamide] | 94 |
| Cc1cc(C(=O)Nc2ccc(C3COC3)cc2)c(=O)n(-c2ccccc2OCC(F)F)n1 [Example 141, 2-[2-(2,2-difluoroethoxy)phenyl]-6-methyl-N-[4-(oxetan-3-yl)phenyl]-3-oxo-2,3-dihydropyridazine-4-carboxamide] | 99 |
| Cc1cc(NC(=O)c2ccnn(-c3ccccc3OCC(F)F)c2=O)ccc1C(C)(C)O [Example 142, 2-[2-(2,2-difluoroethoxy)phenyl]-N-[4-(2-hydroxypropan-2-yl)-3-methylphenyl]-3-oxo-2,3-dihydropyridazine-4-carboxamide] | 98 |
| CC(C)(O)c1ccc(NC(=O)c2ccnn(-c3ccccc3OCC(F)(F)F)c2=O)c(F)c1 [Example 148, N-[2-fluoro-4-(2-hydroxypropan-2-yl)phenyl]-3-oxo-2-[2-(2,2,2-trifluoroethoxy)phenyl]-2,3-dihydropyridazine-4-carboxamide] | 100 |
| Cc1cc(C(=O)Nc2ccc(C(O)(C(F)F)C(F)F)cc2)c(=O)n(-c2ccccc2OCC(F)F)n1 [Example 152, 2-[2-(2,2-difluoroethoxy)phenyl]-6-methyl-3-oxo-N-[4-(1,1,3,3-tetrafluoro-2-hydroxypropan-2-yl)phenyl]-2,3-dihydropyridazine-4-carboxamide] | 100 |
| O=C(Nc1ccc(C(O)(C(F)F)C(F)F)cc1)c1ccnn(-c2ccccc2OCC(F)F)c1=O [Example 153, 2-[2-(2,2-difluoroethoxy)phenyl]-3-oxo-N-[4-(1,1,3,3-tetrafluoro-2-hydroxypropan-2-yl)phenyl]-2,3-dihydropyridazine-4-carboxamide] | 100 |
| O=C(Nc1ccc(C(O)(C(F)F)C(F)F)cc1)c1ccnn(-c2ccccc2OCC(F)(F)F)c1=O [Example 155, 3-oxo-N-[4-(1,1,3,3-tetrafluoro-2-hydroxypropan-2-yl)phenyl]-2-[2-(2,2,2-trifluoroethoxy)phenyl]-2,3-dihydropyridazine-4-carboxamide] | 100 |
